Data: ChEMBL document CHEMBL3509421, “FDA drug approval package for diclofenac acid (NDA 22-202 CP, Ref ID: 3374276)”

What was measured:
[1] = (§1) Geometric mean for Cmax of diclofenac following single oral dosing of 35 mg Zorvolex capsule in healthy human; assay type: ADME, organism-based; design: dietary status Fed, dose 35 mg, dosed compound id 2.46815e+06, dosed compound name Diclofenac, gender Mixed, regimen Single, route oral; conditions: both, plasma
[2] = Mean AUC (0-infinity) of diclofenac following single oral dosing of 50 mg diclofenac potassium softgel capsule in healthy human; assay type: ADME, organism-based; design: time infinity, dietary status Fed, dose 50 mg, dosed compound id 2.46815e+06, dosed compound name Diclofenac potassium, gender Mixed, regimen Single, route oral, study doses 25/50 mg; conditions: both, plasma, read-out: AUC (0-infinity)
[3] = clinical; conditions: both, human, plasma, po, 25 mg
Description: Mean terminal elimination half-life of diclofenac following single oral dosing of 25 mg diclofenac potassium softgel capsule in healthy human

[4] = Mean AUC(0-infinity) of diclofenac following single oral dosing of 50 mg diclofenac potassium soft gelatin capsule in healthy human; assay type: ADME, organism-based; design: time infinity, dietary status Fasting, dose 50 mg, dosed compound id 2.46815e+06, dosed compound name Diclofenac potassium, gender Mixed, regimen Single, route oral, study doses 25/50 mg; conditions: both, plasma, read-out: AUC (0-infinity)
[5] = (§2) Mean minimum Tmax value of diclofenac potassium following oral dosing of PRO-513 50 mg sachet in healthy human; assay type: ADME, organism-based, Plasma; design: dietary status Fasting, dose 50 mg, dosed compound id 2.46815e+06, dosed compound name Diclofenac potassium, gender Mixed, regimen Single, route oral, study doses 50 mg; conditions: in vivo
[6] = as §2; assay type: ADME, organism-based, Plasma; design: dietary status Fed, dose 50 mg, dosed compound id 2.46815e+06, dosed compound name Diclofenac potassium, gender Mixed, regimen Single, route oral, study doses 50 mg; conditions: in vivo
[7] = Geometric mean for AUC (0-infinity) of diclofenac following single oral dosing of 18 mg Zorvolex capsule in healthy human; assay type: ADME, organism-based; design: time infinity, dietary status Fasting, dose 18 mg, dosed compound id 2.46815e+06, dosed compound name Diclofenac, gender Mixed, regimen Single, route oral; conditions: both, plasma, read-out: AUC (0-infinity)
[8] = Mean AUC(0-t) of diclofenac potassium following oral dosing of Cataflam 50 mf tablet in healthy human; assay type: ADME, organism-based; design: dietary status Fasting, dose 50 mg, dosed compound id 2.46815e+06, dosed compound name Diclofenac potassium, gender Mixed, regimen Single, route oral, study doses 50 mg; conditions: both, plasma, 50 mg
[9] = Mean AUC (0-t) value of diclofenac following single oral dosing of 35 mg Zorvolex capsule in healthy human; assay type: ADME, organism-based; design: dietary status Fasting, dose 35 mg, dosed compound id 2.46815e+06, dosed compound name Diclofenac, gender Mixed, regimen Single, route oral; conditions: both, plasma
[10] = Mean Cmax value of diclofenac following single oral dosing of 35 mg Zorvolex capsule in healthy human; assay type: ADME, organism-based; design: dietary status Fasting, dose 35 mg, dosed compound id 2.46815e+06, dosed compound name Diclofenac, gender Mixed, regimen Single, route oral; conditions: both, plasma
[11] = Mean Cmax of diclofenac potassium following oral dosing of Cataflam 50 mf tablet in healthy human; assay type: ADME, organism-based; design: dietary status Fed, dose 50 mg, dosed compound id 2.46815e+06, dosed compound name Diclofenac potassium, gender Mixed, regimen Single, route oral, study doses 50 mg; conditions: both, plasma, 50 mg
[12] = as §1; assay type: ADME, organism-based; design: dietary status Fasting, dose 35 mg, dosed compound id 2.46815e+06, dosed compound name Diclofenac, gender Mixed, regimen Single, route oral; conditions: both, plasma
[13] = clinical; conditions: both, human, plasma, po, 50 mg
Description: (§4) Mean terminal elimination half-life of diclofenac following single oral dosing of 50 mg diclofenac potassium softgel capsule in healthy human

[14] = Mean AUC(0-infinity) of diclofenac following single oral dosing of 50 mg Cataflam in healthy human; assay type: ADME, organism-based; design: time infinity, dietary status Fasting, dose 50 mg, dosed compound id 2.46815e+06, dosed compound name Diclofenac potassium, gender Mixed, regimen Single, route oral, study doses 50 mg; conditions: both, plasma, read-out: AUC (0-infinity)
[15] = Mean AUC(0-t) of diclofenac potassium following oral dosing of PRO-513 50 mg sachet in healthy human; assay type: ADME, organism-based; design: dietary status Fed, dose 50 mg, dosed compound id 2.46815e+06, dosed compound name Diclofenac potassium, gender Mixed, regimen Single, route oral, study doses 50 mg; conditions: both, plasma
[16] = Geometric mean for apparent terminal elimination rate constant of diclofenac following single oral dosing of 18 mg Zorvolex capsule in healthy human; assay type: ADME, organism-based, Plasma; design: dietary status Fasting, dose 18 mg, dosed compound id 2.46815e+06, dosed compound name Diclofenac, gender Mixed, regimen Single, route oral; conditions: in vivo
[17] = clinical; conditions: both, human, plasma, po, 50 mg; remark: listed apart in the source
Description: as §4

[18] = Mean Kel of diclofenac potassium following oral dosing of PRO-513 50 mg sachet in healthy human; assay type: ADME, organism-based; design: dietary status Fasting, dose 50 mg, dosed compound id 2.46815e+06, dosed compound name Diclofenac potassium, gender Mixed, regimen Single, route oral, study doses 50 mg; conditions: both, plasma
[19] = Mean Cmax of diclofenac following single oral dosing of 50 mg diclofenac potassium softgel capsule in healthy human; assay type: ADME, organism-based; design: dietary status Fasting, dose 50 mg, dosed compound id 2.46815e+06, dosed compound name Diclofenac potassium, gender Mixed, regimen Single, route oral, study doses 25/50 mg; conditions: both, plasma
[20] = Mean apparent terminal elimination rate constant value of diclofenac following single oral dosing of 50 mg Cataflam tablet in healthy human; assay type: ADME, organism-based, Plasma; design: dietary status Fasting, dose 50 mg, dosed compound id 2.46815e+06, dosed compound name Diclofenac potassium, gender Mixed, regimen Single, route oral; conditions: in vivo
[21] = Geometric mean for AUC (0-infinity) of diclofenac following single oral dosing of 50 mg Cataflam tablet in healthy human; assay type: ADME, organism-based; design: dietary status Fed, dose 50 mg, dosed compound id 2.46815e+06, dosed compound name Diclofenac potassium, gender Mixed, regimen Single, route oral, time infinity; conditions: both, plasma, read-out: AUC (0-infinity)
[22] = Median tmax of diclofenac following single oral dosing of 50 mg Cataflam tablet in healthy human; assay type: ADME, organism-based; design: dietary status Fed, dose 50 mg, dosed compound id 2.46815e+06, dosed compound name Diclofenac potassium, gender Mixed, regimen Single, route oral; conditions: both, plasma, read-out: Median Tmax
[23] = Mean maximum Tmax value of diclofenac potassium following oral dosing of Cataflam 50 mf tablet in healthy human; assay type: ADME, organism-based; design: dietary status Fasting, dose 50 mg, dosed compound id 2.46815e+06, dosed compound name Diclofenac potassium, gender Mixed, regimen Single, route oral, study doses 50 mg; conditions: both, plasma, 50 mg, read-out: Maximum Tmax
[24] = Geometric mean for AUC (0-t) of diclofenac following single oral dosing of 50 mg Cataflam tablet in healthy human; assay type: ADME, organism-based; design: dietary status Fasting, dose 50 mg, dosed compound id 2.46815e+06, dosed compound name Diclofenac potassium, gender Mixed, regimen Single, route oral; conditions: both, plasma
[25] = (§3) Mean median Tmax value of diclofenac potassium following oral dosing of PRO-513 50 mg sachet in healthy human; assay type: ADME, organism-based; design: dietary status Fed, dose 50 mg, dosed compound id 2.46815e+06, dosed compound name Diclofenac potassium, gender Mixed, regimen Single, route oral, study doses 50 mg; conditions: both, plasma, read-out: Median Tmax
[26] = Mean AUC (0-infinity) value of diclofenac following single oral dosing of 18 mg Zorvolex capsule in healthy human; assay type: ADME, organism-based; design: time infinity, dietary status Fasting, dose 18 mg, dosed compound id 2.46815e+06, dosed compound name Diclofenac, gender Mixed, regimen Single, route oral; conditions: both, plasma, read-out: AUC (0-infinity)
[27] = as §3; assay type: ADME, organism-based; design: dietary status Fasting, dose 50 mg, dosed compound id 2.46815e+06, dosed compound name Diclofenac potassium, gender Mixed, regimen Single, route oral, study doses 50 mg; conditions: both, plasma, read-out: Median Tmax
[28] = Mean Cmax of diclofenac following single oral dosing of 50 mg Cataflam in healthy human; assay type: ADME, organism-based; design: dietary status Fasting, dose 50 mg, dosed compound id 2.46815e+06, dosed compound name Diclofenac potassium, gender Mixed, regimen Single, route oral, study doses 50 mg; conditions: both, plasma
[29] = Geometric mean for AUC (0-t) of diclofenac following single oral dosing of 18 mg Zorvolex capsule in healthy human; assay type: ADME, organism-based; design: dietary status Fasting, dose 18 mg, dosed compound id 2.46815e+06, dosed compound name Diclofenac, gender Mixed, regimen Single, route oral; conditions: both, plasma
[30] = Mean AUC(0-infinity) of diclofenac potassium following oral dosing of PRO-513 50 mg sachet in healthy human; assay type: ADME, organism-based; design: time infinity, dietary status Fed, dose 50 mg, dosed compound id 2.46815e+06, dosed compound name Diclofenac potassium, gender Mixed, regimen Single, route oral, study doses 50 mg; conditions: both, plasma, read-out: AUC(0-infinity)
[31] = Geometric mean for apparent terminal elimination rate constant of diclofenac following single oral dosing of 50 mg Cataflam tablet in healthy human; assay type: ADME, organism-based, Plasma; design: dietary status Fed, dose 50 mg, dosed compound id 2.46815e+06, dosed compound name Diclofenac potassium, gender Mixed, regimen Single, route oral; conditions: in vivo

`O=C(O)Cc1ccccc1Nc1c(Cl)cccc1Cl` [DICLOFENAC] gave a Cmax [1] of 321 ng/mL, an AUC(0-inf) [2] of 1460 ng·h/mL and a half-life [3] of 1.11 h. The AUC(0-inf) [4] was 1230 ng·h/mL, the “Minimum Tmax” value [5] was 0.17 h and the “Minimum Tmax” value [6] was 4.8 min. It also gave an AUC(0-inf) [7] of 487 ng·h/mL, an AUC(0-t) [8] of 1080 ng·h/mL and an AUC(0-t) [9] of 1000 ng·h/mL. It also gave a Cmax [10] of 869 ng/mL, a Cmax [11] of 835 ng/mL and a Cmax [12] of 804 ng/mL. It also gave a half-life [13] of 1.1 h, an AUC(0-inf) [14] of 1140 ng·h/mL and an AUC(0-t) [15] of 1050 ng·h/mL. It also gave a lambda-z [16] of 0.384 h⁻¹, a half-life [17] of 1.07 h and a k el [18] of 0.000156 s⁻¹. It also gave a Cmax [19] of 2360 ng/mL, a lambda-z [20] of 0.333 h⁻¹ and an AUC(0-inf) [21] of 1180 ng·h/mL. The Tmax [22] was 2.33 h, the Tmax [23] was 4 h and the AUC(0-t) [24] was 1290 ng·h/mL. For the same molecule, the Tmax [25] was 0.17 h, the AUC(0-inf) [26] was 499 ng·h/mL and the Tmax [27] was 0.25 h. The Cmax [28] was 1170 ng/mL, the AUC(0-t) [29] was 478 ng·h/mL and the AUC(0-inf) [30] was 1080 ng·h/mL. For the same molecule, the lambda-z [31] was 0.318 h⁻¹.
